# Measurements from ChEMBL document CHEMBL6078637, “Cyclic Diguanylate G-Quadruplex Inducer-Quorum Sensing Inhibitor Hybrids as Bifunctional Anti-biofilm and Anti-virulence Agents Against Pseudomonas aeruginosa” (J Med Chem, 2024).
# The source made the active and inactive calls. The calls are words filed in the database; no cut-off is given here.
# Tests used:
# Pseudomonas aeruginosa [1] = experiment: Antivirulence activity against Pseudomonas aeruginosa PAO1 assessed as reduction in pyocyanin level incubated for 24 hrs by absorbance based assay; type: functional, organism-based; conditions: dose <= 10.0 µM
# Pseudomonas aeruginosa [2] = experiment: Synergistic inhibition of bacterial virulence of Pseudomonas aeruginosa PAO1 infected in Caenorhabditis elegans upto 10 uM incubated for 36 hrs in presence of tetracycline; type: functional, organism-based
# Pseudomonas aeruginosa [3] = experiment: Inhibition of beta-galactosidase in Pseudomonas aeruginosa PAO1 harboring mini-ctx-rhlA-lacZ at 10 uM incubated for 6 hrs by ONPG test relative to control
# [4] = Toxicity in Caenorhabditis elegans infected with hyper-biofilm phenotype Pseudomonas aeruginosa PAO1 harboring wspF mutant assessed as nematode death at 10 uM incubated for 48 hrs in presence of tetracycline
# Pseudomonas aeruginosa [5] = experiment: Antibiofilm activity against Pseudomonas aeruginosa PAO1 harboring wspF mutant incubated for 24 hrs by absorbance based assay; type: functional, organism-based
# [6] = Inhibition of quorum sensing system in Pseudomonas aeruginosa PAO1 harboring mini-ctx-lasB-lacZ at 10 uM measured after 16 hrs by ONPG test relative to control
# Pseudomonas aeruginosa [7] = experiment: Inhibition of swarming motility of Pseudomonas aeruginosa PAO1 at 10 uM incubated overnight; type: functional, organism-based
# Pseudomonas aeruginosa [8] = experiment: Antibacterial activity against Pseudomonas aeruginosa PAO1 incubated for 24 hrs by absorbance based assay; type: functional
# [9] = Toxicity in Caenorhabditis elegans infected with Pseudomonas aeruginosa PAO1 assessed as nematode survival at 10 uM incubated for 48 hrs in presence of tetracycline
# Pseudomonas aeruginosa [10] = experiment: Inhibition of beta-galactosidase in Pseudomonas aeruginosa PAO1 harboring mini-ctx-lasB-lacZ incubated for 6 hrs by ONPG test; conditions: dose <= 10.0 µM
# Pseudomonas aeruginosa [11] = experiment: Inhibition of twitching motility of Pseudomonas aeruginosa PAO1 at 10 uM incubated overnight by crystal voilet staining based analysis; type: functional, organism-based
# Pseudomonas aeruginosa [12] = experiment: Downregulation of rhlA mRNA level in Pseudomonas aeruginosa PAO1 at 10 uM by RT-qPCR analysis; type: functional, organism-based
# [13] = Toxicity in Caenorhabditis elegans infected with hyper-biofilm phenotype Pseudomonas aeruginosa PAO1 harboring wspF mutant assessed as nematode death at 10 uM incubated for 48 hrs in presence of TOB
# Vero = experiment: Cytotoxicity against African green monkey Vero cells at 12.5 uM incubated for 24 hrs by MTT assay; type: toxicity, cell-based; conditions: chlorocebus sabaeus
# Pseudomonas aeruginosa [14] = experiment: Antivirulence activity against Pseudomonas aeruginosa PAO1 assessed as reduction in pyocyanin level at 10 uM incubated for 24 hrs by absorbance based assay relative to control; type: functional; design: scale not given: the % may be the effect or the level left
# Pseudomonas aeruginosa [15] = experiment: Antivirulence activity against Pseudomonas aeruginosa PAO1 assessed as reduction in elastase level at 10 uM incubated for 24 hrs by elastin-Congo red staining based analysis relative to control; type: functional; design: scale not given: the % may be the effect or the level left
# Pseudomonas aeruginosa [16] = experiment: Inhibition of beta-galactosidase in Pseudomonas aeruginosa PAO1 harboring mini-ctx-lacZ at 10 uM incubated for 6 hrs by ONPG test relative to control
# Pseudomonas aeruginosa [17] = experiment: Synergistic inhibition of bacterial virulence of hyper-biofilm phenotype Pseudomonas aeruginosa PAO1 harboring wspF mutant upto 10 uM incubated for 36 hrs in presence of tetracycline; type: functional, organism-based
# Pseudomonas aeruginosa [18] = experiment: Inhibition of swarming motility of Pseudomonas aeruginosa PAO1 incubated overnight; type: functional, organism-based; conditions: dose <= 10.0 µM
# Pseudomonas aeruginosa [19] = experiment: Synergistic inhibition of bacterial virulence of hyper-biofilm phenotype Pseudomonas aeruginosa PAO1 harboring wspF mutant upto 10 uM incubated for 36 hrs in presence of TOB; type: functional, organism-based
# Pseudomonas aeruginosa [20] = experiment: Antivirulence activity against Pseudomonas aeruginosa PAO1 assessed as reduction in hemolysin level at 10 uM preincubated for 24 hrs followed by addition of erythrocytes measured after 30 mins by absorbance based analysis relative to control; type: functional; design: scale not given: the % may be the effect or the level left
# Pseudomonas aeruginosa [21] = experiment: Inhibition of beta-galactosidase in Pseudomonas aeruginosa PAO1 harboring mini-ctx-pqsA-lacZ at 10 uM incubated for 6 hrs by ONPG test relative to control
# DNA [22] = experiment: Binding affinity to pBR322 DNA (unknown origin) assessed as DNA migration at 50 uM preincubated for 10 mins followed by Topo I addition measured after 1 hr by TO dye based PAGE analysis; type: nucleic-acid assay; conditions: time 70.0 min
# [23] = Toxicity in Caenorhabditis elegans infected with Pseudomonas aeruginosa PAO1 assessed as reduction in nematode mortality rate at 10 uM incubated for 48 hrs in presence of TOB; design: scale not given: the % may be the effect or the level left
# Pseudomonas aeruginosa [24] = experiment: Synergistic inhibition of bacterial virulence of Pseudomonas aeruginosa PAO1 infected in Caenorhabditis elegans upto 10 uM incubated for 36 hrs in presence of TOB; type: functional, organism-based
# Pseudomonas aeruginosa [25] = experiment: Antibiofilm activity against Pseudomonas aeruginosa PAO1 harboring wspF mutant assessed as inhibition rate at 1.25 uM incubated for 24 hrs by absorbance based assay relative to control; type: functional
# Pseudomonas aeruginosa [26] = experiment: Inhibition of beta-galactosidase in Pseudomonas aeruginosa PAO1 harboring mini-ctx-pqsA-lacZ incubated for 6 hrs by ONPG test; conditions: dose <= 10.0 µM
# [27] = Toxicity in Caenorhabditis elegans infected with Pseudomonas aeruginosa PAO1 assessed as nematode survival at 10 uM incubated for 48 hrs
# Pseudomonas aeruginosa [28] = experiment: Inhibition of beta-galactosidase in Pseudomonas aeruginosa PAO1 harboring mini-ctx-lasB-lacZ at 10 uM incubated for 6 hrs by ONPG test relative to control
# Pseudomonas aeruginosa [29] = experiment: Downregulation of lasR mRNA level in Pseudomonas aeruginosa PAO1 at 10 uM by RT-qPCR analysis; type: functional, organism-based
# Pseudomonas aeruginosa [30] = experiment: Downregulation of pelA mRNA level in Pseudomonas aeruginosa PAO1 at 10 uM by RT-qPCR analysis; type: functional, organism-based
# Pseudomonas aeruginosa [31] = experiment: Downregulation of lasB mRNA level in Pseudomonas aeruginosa PAO1 at 10 uM by RT-qPCR analysis; type: functional, organism-based
# Pseudomonas aeruginosa [32] = experiment: Downregulation of rhlR mRNA level in Pseudomonas aeruginosa PAO1 at 10 uM by RT-qPCR analysis; type: functional, organism-based
# Pseudomonas aeruginosa [33] = experiment: Synergistic antibacterial activity against Pseudomonas aeruginosa PAO1 assessed as bacterial growth inhibition at 20 uM incubated for 24 hrs in presence of tetracycline by CFU counting method; type: functional, organism-based
# DNA [34] = experiment: Binding affinity to pBR322 DNA (unknown origin) assessed as DNA embedding toxicity at 50 uM preincubated for 10 mins followed by Topo I addition measured after 1 hr by TO dye based PAGE analysis; type: nucleic-acid assay; conditions: time 70.0 min
# Pseudomonas aeruginosa [35] = experiment: Inhibition of swimming motility of Pseudomonas aeruginosa PAO1 incubated overnight; type: functional, organism-based; conditions: dose <= 10.0 µM
# Pseudomonas aeruginosa [36] = experiment: Antivirulence activity against Pseudomonas aeruginosa PAO1 assessed as reduction in elastase level incubated for 24 hrs by elastin-Congo red staining based analysis; type: functional, organism-based; conditions: dose <= 10.0 µM
# Pseudomonas aeruginosa [37] = experiment: Inhibition of twitching motility of Pseudomonas aeruginosa PAO1 incubated overnight by crystal voilet staining based analysis; type: functional, organism-based; conditions: dose <= 10.0 µM
# Pseudomonas aeruginosa [38] = experiment: Antivirulence activity against Pseudomonas aeruginosa PAO1 assessed as reduction in rhamnolipid level at 10 uM incubated for 24 hrs by orcinol based analysis; type: functional, organism-based
# Pseudomonas aeruginosa [39] = experiment: Antibiofilm activity against Pseudomonas aeruginosa PAO1 harboring wspF mutant assessed as inhibition rate at 10 uM incubated for 24 hrs by absorbance based assay relative to control; type: functional
# Pseudomonas aeruginosa [40] = experiment: Inhibition of swimming motility of Pseudomonas aeruginosa PAO1 at 10 uM incubated overnight relative to control; type: functional
# [41] = Hemolytic activity in rabbit erythrocytes assessed as damage in cell membrane integrity at 100 uM incubated for 4 hrs by absorbance based assay; type: toxicity, Oryctolagus cuniculus; conditions: erythrocyte
# Pseudomonas aeruginosa [42] = experiment: Downregulation of pqsR mRNA level in Pseudomonas aeruginosa PAO1 at 10 uM by RT-qPCR analysis; type: functional, organism-based
# Pseudomonas aeruginosa [43] = experiment: Antivirulence activity against Pseudomonas aeruginosa PAO1 assessed as reduction in rhamnolipid level incubated for 24 hrs by orcinol based analysis; type: functional, organism-based; conditions: dose <= 10.0 µM
# [44] = Toxicity in Caenorhabditis elegans assessed as nematode survival upto 100 uM incubated for 96 hrs
# [45] = Toxicity in Caenorhabditis elegans infected with Pseudomonas aeruginosa PAO1 assessed as nematode survival at 2 ug incubated for 48 hrs; conditions: in vivo, at 2 µg
smiles,measurement,setting,value
C[n+]1c(/C=C/c2c[nH]c3ccccc23)ccc2ccccc21.[I-],Activity,Pseudomonas aeruginosa [1],Dose-dependent-effect
same,Activity,Pseudomonas aeruginosa [2],Active
same,inhibition,Pseudomonas aeruginosa [3],10%
same,Activity,[4],Non-toxic
same,inhibition,Pseudomonas aeruginosa [5],Dose-dependent-effect
same,IC50,"Pseudomonas aeruginosa [5]; PAO1, 24 h",14.9 µM
same,inhibition,[6],44.5%
same,inhibition,Pseudomonas aeruginosa [7],Active; Inhibitory Effect Was Comparable To Qs Deficient Pao1 Double Mutant Lasi/Rhli
same,MIC,Pseudomonas aeruginosa [8],> 128 µM
same,Survival,[9],95%
same,inhibition,Pseudomonas aeruginosa [10],Dose-dependent-effect
same,inhibition,Pseudomonas aeruginosa [11],Active; Exhibited Only A Modest Impact
same,Activity,Pseudomonas aeruginosa [12],Active
same,Activity,[13],Non-toxic
same,Activity,Vero,Non-toxic
same,Activity,Pseudomonas aeruginosa [14],~40%
same,Activity,Pseudomonas aeruginosa [15],59.02%
same,inhibition,Pseudomonas aeruginosa [16],20.4%
same,Activity,Pseudomonas aeruginosa [17],Active
same,inhibition,Pseudomonas aeruginosa [18],Dose-dependent-effect
same,Activity,Pseudomonas aeruginosa [19],Active
same,Activity,Pseudomonas aeruginosa [20],62.38%
same,inhibition,Pseudomonas aeruginosa [21],30%
same,Activity,DNA [22],Not toxic
same,Activity,[23],~ 50%
same,Activity,Pseudomonas aeruginosa [24],Active
same,inhibition at 1.25 µM,Pseudomonas aeruginosa [25],~21%
same,inhibition,Pseudomonas aeruginosa [26],Dose-dependent-effect
same,Activity,[27],Toxic
same,inhibition,Pseudomonas aeruginosa [28],30%
same,Activity,Pseudomonas aeruginosa [29],Active
same,Activity,Pseudomonas aeruginosa [30],Active
same,Activity,Pseudomonas aeruginosa [31],Active
same,Activity,Pseudomonas aeruginosa [32],Active
same,Activity,Pseudomonas aeruginosa [33],Active
same,Activity,DNA [34],Not toxic
same,inhibition,Pseudomonas aeruginosa [35],Dose-dependent-effect
same,Activity,Pseudomonas aeruginosa [36],Dose-dependent-effect
same,inhibition,Pseudomonas aeruginosa [37],Dose-dependent-effect
same,Activity,Pseudomonas aeruginosa [38],Active; Exhibited Relatively Modest Activity
same,inhibition at 10 µM,Pseudomonas aeruginosa [39],~40%
same,inhibition at 10 µM,Pseudomonas aeruginosa [40],29.2%
same,Activity,[41],Non-toxic
same,Activity,Pseudomonas aeruginosa [42],Active
same,Activity,Pseudomonas aeruginosa [43],Dose-dependent-effect
same,Activity,[44],Non-toxic
CN(C)[C@@H]1C(O)=C(C(N)=O)C(=O)[C@@]2(O)C(O)=C3C(=O)c4c(O)cccc4[C@@](C)(O)[C@H]3C[C@@H]12 [TETRACYCLINE],MIC,Pseudomonas aeruginosa [8],> 128 µM
same,Survival,[45],~ 10%
